ChEMBL document CHEMBL1139142, “Discovery of 4-amino-5,6-biaryl-furo[2,3-d]pyrimidines as inhibitors of Lck: development of an expedient and divergent synthetic route and preliminary SAR” (Bioorg Med Chem Lett, 2007)

How the values were obtained:
Activated CDC42 kinase 1 = Activated CDC42 kinase 1 (Homo sapiens, UniProt Q07912); assay: Inhibition of Ack1
T-cell [1] = assay: Inhibition of T cell activation in human mixed lymphocyte reaction; assay type: functional, cell-based
[2] = biological target: Tyrosine-protein kinase Lck (Homo sapiens, UniProt P06239); assay: Inhibition of Lck
Tyrosine-protein kinase Lck, sequence (P06239 whole entry): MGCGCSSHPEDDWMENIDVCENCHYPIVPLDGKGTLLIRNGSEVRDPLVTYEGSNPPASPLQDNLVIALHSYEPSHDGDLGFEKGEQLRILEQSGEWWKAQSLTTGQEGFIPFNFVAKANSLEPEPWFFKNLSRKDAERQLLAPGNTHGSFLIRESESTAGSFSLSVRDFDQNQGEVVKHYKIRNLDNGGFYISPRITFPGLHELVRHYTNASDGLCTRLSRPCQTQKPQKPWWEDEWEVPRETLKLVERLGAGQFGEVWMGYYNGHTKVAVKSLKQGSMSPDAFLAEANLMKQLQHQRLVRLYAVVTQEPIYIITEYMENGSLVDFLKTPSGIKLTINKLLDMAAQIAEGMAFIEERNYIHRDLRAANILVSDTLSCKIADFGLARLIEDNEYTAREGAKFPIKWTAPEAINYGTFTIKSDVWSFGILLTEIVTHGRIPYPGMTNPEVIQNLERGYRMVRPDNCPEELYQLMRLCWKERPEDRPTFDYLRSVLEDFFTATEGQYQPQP

Angiopoietin-1 receptor = Angiopoietin-1 receptor (Homo sapiens, UniProt Q02763); assay: Inhibition of Tie2
[3] = biological target: Vascular endothelial growth factor receptor 2 (Homo sapiens, UniProt P35968); assay: Inhibition of KDR
Vascular endothelial growth factor receptor 2, sequence (P35968 whole entry): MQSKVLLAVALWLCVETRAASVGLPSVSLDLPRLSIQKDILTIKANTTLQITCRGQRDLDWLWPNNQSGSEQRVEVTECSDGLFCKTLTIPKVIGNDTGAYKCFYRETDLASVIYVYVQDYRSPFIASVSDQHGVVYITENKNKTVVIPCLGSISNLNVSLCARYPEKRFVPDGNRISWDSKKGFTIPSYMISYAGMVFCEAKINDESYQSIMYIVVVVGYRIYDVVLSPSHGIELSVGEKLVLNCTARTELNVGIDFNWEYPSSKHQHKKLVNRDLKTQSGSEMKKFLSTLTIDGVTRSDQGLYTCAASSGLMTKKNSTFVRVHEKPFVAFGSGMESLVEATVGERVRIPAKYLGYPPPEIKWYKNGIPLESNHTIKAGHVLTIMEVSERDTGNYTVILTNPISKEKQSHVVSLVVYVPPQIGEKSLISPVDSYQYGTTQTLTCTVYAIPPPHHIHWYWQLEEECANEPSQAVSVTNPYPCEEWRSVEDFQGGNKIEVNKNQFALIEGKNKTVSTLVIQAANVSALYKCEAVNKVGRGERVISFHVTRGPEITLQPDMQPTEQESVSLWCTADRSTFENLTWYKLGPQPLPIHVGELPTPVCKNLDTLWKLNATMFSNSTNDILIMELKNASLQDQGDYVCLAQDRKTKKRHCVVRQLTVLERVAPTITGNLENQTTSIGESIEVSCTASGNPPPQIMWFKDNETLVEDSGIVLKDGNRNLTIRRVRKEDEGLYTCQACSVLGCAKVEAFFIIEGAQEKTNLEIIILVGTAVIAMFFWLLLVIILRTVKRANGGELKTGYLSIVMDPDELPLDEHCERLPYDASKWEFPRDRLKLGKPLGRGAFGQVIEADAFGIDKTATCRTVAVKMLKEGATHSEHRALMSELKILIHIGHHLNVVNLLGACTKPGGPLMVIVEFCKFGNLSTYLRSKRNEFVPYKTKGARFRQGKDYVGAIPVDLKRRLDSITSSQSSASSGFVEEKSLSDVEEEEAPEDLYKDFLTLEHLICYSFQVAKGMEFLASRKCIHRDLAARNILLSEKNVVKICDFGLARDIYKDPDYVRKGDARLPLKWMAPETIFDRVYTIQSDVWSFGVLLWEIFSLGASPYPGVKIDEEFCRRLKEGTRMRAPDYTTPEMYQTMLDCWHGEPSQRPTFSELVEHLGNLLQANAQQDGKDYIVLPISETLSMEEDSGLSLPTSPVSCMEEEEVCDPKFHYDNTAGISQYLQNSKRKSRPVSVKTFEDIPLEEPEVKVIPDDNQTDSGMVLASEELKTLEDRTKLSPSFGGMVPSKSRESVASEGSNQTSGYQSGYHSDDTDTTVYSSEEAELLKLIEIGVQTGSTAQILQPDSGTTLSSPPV

T-cell [4] = assay: Inhibition of anti-CD3/CD28-induced IL2 secretion in human T cells; assay type: functional, cell-based
[5] = Inhibition of IGFR; design: species or system Homo sapiens
[6] = biological target: T1, Tyrosine-protein kinase ZAP-70 (Homo sapiens, UniProt P43403); assay: Inhibition of ZAP70
T1 sequence (P43403 whole entry): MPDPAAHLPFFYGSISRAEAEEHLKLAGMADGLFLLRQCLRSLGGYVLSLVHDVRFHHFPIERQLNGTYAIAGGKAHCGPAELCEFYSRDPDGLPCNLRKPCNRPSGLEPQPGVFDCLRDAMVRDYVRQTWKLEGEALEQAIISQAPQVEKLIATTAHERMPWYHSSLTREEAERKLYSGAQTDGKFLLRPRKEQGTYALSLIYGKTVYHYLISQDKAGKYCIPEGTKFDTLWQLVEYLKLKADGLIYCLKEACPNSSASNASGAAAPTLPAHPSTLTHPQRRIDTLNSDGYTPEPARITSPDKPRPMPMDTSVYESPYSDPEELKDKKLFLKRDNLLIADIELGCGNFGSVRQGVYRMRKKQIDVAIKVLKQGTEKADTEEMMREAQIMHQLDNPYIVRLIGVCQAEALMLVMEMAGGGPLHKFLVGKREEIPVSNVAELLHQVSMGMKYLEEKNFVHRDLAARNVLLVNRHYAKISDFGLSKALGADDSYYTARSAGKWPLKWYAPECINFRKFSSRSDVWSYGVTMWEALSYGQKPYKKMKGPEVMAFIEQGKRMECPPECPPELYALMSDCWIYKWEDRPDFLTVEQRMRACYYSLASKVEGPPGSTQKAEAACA

[7] = biological target: Tyrosine-protein kinase JAK2 (Homo sapiens, UniProt O60674); assay: Inhibition of Jak2
[8] = biological target: Proto-oncogene tyrosine-protein kinase Src (Homo sapiens, UniProt P12931); assay: Inhibition of Src
Proto-oncogene tyrosine-protein kinase Src, sequence (P12931 2-536 limits assumed): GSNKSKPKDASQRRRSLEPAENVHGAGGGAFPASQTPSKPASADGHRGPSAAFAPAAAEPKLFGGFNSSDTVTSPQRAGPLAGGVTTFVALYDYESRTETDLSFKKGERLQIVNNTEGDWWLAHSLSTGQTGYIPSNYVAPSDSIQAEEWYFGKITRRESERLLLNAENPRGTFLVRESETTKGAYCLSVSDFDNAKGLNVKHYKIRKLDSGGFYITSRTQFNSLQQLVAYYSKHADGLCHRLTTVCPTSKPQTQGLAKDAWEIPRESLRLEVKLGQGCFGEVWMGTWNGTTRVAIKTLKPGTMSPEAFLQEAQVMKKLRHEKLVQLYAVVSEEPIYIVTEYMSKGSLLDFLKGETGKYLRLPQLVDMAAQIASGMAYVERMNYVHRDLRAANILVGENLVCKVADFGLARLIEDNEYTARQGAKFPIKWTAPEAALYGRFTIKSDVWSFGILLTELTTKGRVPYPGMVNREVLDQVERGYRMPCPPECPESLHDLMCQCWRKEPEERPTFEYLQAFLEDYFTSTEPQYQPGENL

[9] = biological target: Epidermal growth factor receptor (Homo sapiens, UniProt P00533)
Epidermal growth factor receptor, sequence (P00533 whole entry): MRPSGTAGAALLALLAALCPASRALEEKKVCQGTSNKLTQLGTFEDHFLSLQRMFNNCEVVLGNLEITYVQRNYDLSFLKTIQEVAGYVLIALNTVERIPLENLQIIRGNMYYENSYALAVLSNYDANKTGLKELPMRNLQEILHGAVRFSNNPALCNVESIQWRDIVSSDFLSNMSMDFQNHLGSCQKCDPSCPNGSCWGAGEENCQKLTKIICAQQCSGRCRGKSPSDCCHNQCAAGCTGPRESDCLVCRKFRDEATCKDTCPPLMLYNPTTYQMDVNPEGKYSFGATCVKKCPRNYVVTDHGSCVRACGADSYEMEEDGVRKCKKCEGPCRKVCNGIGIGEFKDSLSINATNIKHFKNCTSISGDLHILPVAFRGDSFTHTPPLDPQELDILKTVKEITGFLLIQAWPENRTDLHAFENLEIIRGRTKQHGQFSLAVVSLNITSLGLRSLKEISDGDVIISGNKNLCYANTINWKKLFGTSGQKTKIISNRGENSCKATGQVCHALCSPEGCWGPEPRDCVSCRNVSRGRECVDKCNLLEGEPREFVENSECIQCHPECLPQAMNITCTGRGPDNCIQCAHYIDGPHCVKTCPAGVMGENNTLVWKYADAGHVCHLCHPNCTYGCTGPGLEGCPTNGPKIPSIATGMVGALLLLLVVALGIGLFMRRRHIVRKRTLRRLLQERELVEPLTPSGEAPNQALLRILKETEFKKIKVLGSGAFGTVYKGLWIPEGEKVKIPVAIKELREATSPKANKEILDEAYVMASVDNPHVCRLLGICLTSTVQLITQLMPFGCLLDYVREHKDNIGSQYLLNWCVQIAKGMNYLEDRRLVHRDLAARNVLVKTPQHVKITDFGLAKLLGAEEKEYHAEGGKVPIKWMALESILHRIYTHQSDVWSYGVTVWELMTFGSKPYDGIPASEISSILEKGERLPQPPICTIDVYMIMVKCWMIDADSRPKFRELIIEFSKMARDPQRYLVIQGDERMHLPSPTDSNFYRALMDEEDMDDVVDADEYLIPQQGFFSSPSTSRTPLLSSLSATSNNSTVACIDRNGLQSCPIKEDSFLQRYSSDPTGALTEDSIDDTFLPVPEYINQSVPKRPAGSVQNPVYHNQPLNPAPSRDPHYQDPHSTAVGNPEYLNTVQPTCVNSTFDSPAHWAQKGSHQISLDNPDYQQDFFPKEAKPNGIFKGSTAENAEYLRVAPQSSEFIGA

[10] = biological target: T2, Tyrosine-protein kinase JAK3 (Homo sapiens, UniProt P52333); assay: Inhibition of Jak3
T2 sequence (P52333 whole entry): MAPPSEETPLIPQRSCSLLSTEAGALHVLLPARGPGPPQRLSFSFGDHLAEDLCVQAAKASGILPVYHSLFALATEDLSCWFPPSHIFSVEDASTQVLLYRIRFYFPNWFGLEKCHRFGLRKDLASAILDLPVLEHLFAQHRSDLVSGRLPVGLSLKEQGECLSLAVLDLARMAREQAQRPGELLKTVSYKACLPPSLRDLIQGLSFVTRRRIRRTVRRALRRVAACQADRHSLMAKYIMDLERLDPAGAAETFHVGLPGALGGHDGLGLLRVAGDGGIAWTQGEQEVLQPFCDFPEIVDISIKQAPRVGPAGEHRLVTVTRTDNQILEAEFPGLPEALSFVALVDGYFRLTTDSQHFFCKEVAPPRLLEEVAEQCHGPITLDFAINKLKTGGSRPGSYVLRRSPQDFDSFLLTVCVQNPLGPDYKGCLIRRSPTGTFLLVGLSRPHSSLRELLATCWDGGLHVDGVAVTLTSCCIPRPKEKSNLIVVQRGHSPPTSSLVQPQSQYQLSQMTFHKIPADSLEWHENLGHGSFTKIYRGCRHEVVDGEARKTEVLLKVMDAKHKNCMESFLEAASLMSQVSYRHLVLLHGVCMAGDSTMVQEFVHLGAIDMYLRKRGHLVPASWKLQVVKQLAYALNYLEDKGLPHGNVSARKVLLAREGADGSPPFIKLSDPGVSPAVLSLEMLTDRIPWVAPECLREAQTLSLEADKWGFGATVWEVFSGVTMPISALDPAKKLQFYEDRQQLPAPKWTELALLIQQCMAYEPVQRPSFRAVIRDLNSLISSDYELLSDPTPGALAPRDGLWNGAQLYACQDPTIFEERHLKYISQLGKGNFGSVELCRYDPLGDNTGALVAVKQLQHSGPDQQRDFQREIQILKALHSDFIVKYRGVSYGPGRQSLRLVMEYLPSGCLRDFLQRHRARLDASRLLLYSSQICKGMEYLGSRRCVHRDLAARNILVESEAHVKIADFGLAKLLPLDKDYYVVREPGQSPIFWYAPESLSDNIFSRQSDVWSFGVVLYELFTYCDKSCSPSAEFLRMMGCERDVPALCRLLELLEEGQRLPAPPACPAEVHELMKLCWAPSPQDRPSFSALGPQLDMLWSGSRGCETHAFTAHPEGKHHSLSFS

[11] = Clearance in Sprague-Dawley rat at 1 mg/kg, iv; assay type: ADME, organism-based; design: dose 1 mg/kg, route intravenous; details: in vivo
[12] = Volume of distribution at steady state in Sprague-Dawley rat at 1 mg/kg, iv; assay type: ADME, organism-based; design: dose 1 mg/kg, route intravenous; details: in vivo, read-out: Vdss
[13] = Half life in Sprague-Dawley rat at 1 mg/kg, iv; assay type: ADME, organism-based; design: dose 1 mg/kg, route intravenous; details: in vivo
[14] = Oral bioavailability in Sprague-Dawley rat at 5 mg/kg; assay type: ADME, organism-based; details: in vivo
[15] = Cmax in Sprague-Dawley rat at 5 mg/kg, po; assay type: ADME, organism-based; design: dose 5 mg/kg, route oral; details: in vivo
[16] = AUC (0 to infinity) in Sprague-Dawley rat at 5 mg/kg, po; assay type: ADME, organism-based; design: time infinity, dose 5 mg/kg, route oral; details: plasma

Activated CDC42 kinase 1, sequence (Q07912 whole entry): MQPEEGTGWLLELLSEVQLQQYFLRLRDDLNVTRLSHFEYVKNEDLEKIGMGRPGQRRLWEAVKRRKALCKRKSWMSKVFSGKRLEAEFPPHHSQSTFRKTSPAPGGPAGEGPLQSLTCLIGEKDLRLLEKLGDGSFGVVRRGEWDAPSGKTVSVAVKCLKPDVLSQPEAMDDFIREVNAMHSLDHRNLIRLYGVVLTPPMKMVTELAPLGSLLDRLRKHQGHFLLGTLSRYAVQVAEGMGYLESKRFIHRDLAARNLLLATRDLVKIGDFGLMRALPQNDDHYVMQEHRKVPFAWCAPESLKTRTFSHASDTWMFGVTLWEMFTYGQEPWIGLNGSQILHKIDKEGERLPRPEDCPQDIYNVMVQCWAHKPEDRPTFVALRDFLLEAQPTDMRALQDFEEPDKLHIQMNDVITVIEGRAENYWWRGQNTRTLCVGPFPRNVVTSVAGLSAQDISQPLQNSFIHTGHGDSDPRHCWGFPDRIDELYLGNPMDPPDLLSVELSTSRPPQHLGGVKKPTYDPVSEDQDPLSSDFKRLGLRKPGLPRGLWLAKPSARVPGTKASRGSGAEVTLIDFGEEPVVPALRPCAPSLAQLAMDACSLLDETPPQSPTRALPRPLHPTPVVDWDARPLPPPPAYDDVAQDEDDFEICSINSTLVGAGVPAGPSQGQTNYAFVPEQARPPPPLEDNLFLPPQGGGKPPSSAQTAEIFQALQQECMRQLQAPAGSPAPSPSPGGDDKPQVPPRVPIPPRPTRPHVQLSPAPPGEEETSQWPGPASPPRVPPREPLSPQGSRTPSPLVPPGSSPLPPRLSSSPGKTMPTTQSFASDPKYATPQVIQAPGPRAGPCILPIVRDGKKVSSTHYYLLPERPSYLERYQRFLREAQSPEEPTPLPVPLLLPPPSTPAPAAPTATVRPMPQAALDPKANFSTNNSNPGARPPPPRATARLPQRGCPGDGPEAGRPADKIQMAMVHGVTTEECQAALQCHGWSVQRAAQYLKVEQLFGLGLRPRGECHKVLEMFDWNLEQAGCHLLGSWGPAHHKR

Row | SMILES | IC50 (Activated CDC42 kinase 1) [nM] | IC50 (T-cell [1]) [nM] | IC50 [2] [nM] | IC50 (T-cell [4]) [nM] | also measured
1 | c1ccc(-c2c(-c3ccc(N4CCOCC4)cc3)oc3ncnc(NCCN4CCNCC4)c23)cc1 | 17 | 227 | 11 |  | 
2 | c1ccc(-c2oc3ncnc(NC[C@H]4CCCO4)c3c2-c2ccccc2)cc1 | 523 | 2130 | 1210 |  | 
3 | c1ccc(-c2c(-c3ccc(OCCN4CCCC4)cc3)oc3ncnc(NCCN4CCNCC4)c23)cc1 | 98 | 227 | 9 | 430 | IC50 (Angiopoietin-1 receptor): > 25000 nM; IC50 [3]: 3100 nM; IC50 [5]: 3150 nM; IC50 [6]: 992 nM; IC50 [7]: > 8330 nM; IC50 [8]: 45 nM; IC50 [9]: 397 nM; IC50 [10]: 960 nM
4 | CN(C)CCOc1ccc(-c2oc3ncnc(NC[C@@H]4CCCO4)c3c2-c2ccccc2)cc1 | 11 | 464 | 6 | 119 | 
5 | CC(C)Nc1ncnc2oc(-c3ccc(OCCN4CCCC4)cc3)c(-c3ccccc3)c12 | 78 | 533 | 36 | 199 | IC50 (Angiopoietin-1 receptor): > 8330 nM; IC50 [3]: 537 nM; IC50 [5]: 1490 nM; IC50 [6]: 3270 nM; IC50 [7]: 4890 nM; IC50 [8]: 914 nM; IC50 [9]: 1030 nM; IC50 [10]: 1430 nM
6 | c1ccc(-c2c(-c3ccc(OCCN4CCCC4)cc3)oc3ncnc(NC[C@@H]4CCCO4)c23)cc1 | 16 | 670 | 11 | 435 | 
7 | CN1CCN(Cc2ccc(-c3oc4ncnc(NC[C@@H]5CCCO5)c4c3-c3ccccc3)cc2)CC1 | 7 | 337 | 6 | 293 | 
8 | CCN1CCN(C(=O)c2ccc(-c3oc4ncnc(NC[C@@H]5CCCO5)c4c3-c3ccccc3)cc2)CC1 | 13 | 437 | 11 | 2420 | 
9 | c1ccc(-c2oc3ncnc(NC[C@@H]4CCCO4)c3c2-c2ccccc2)cc1 | 24 | 8950 | 122 | 2410 | 
10 | CC(C)(C)Nc1ncnc2oc(-c3ccc(OCCN4CCCC4)cc3)c(-c3ccccc3)c12 | 650 | 2380 | 83 | 3260 | 
11 | c1ccc(-c2c(-c3ccc(OCCN4CCCC4)cc3)oc3ncnc(NCCC4CCNCC4)c23)cc1 | 332 | 2450 | 14 |  | 
12 | c1ccc(-c2oc3ncnc(NCCN4CCNCC4)c3c2-c2ccccc2)cc1 | 181 | 1710 |  | 690 | clearance [11]: 14.8 mL/min/kg; Vd [12]: 2.77 L/kg; half-life [13]: 2.37 h; bioavailability [14]: 15%; Cmax [15]: 180 ng/mL; AUC(0-inf) [16]: 1040 ng·h/mL
13 | c1ccc(-c2c(-c3ccc(CN4CCOCC4)cc3)oc3ncnc(NCCN4CCNCC4)c23)cc1 | 91 | 138 | 27 |  | 
14 | CN1CCOc2cc(-c3oc4ncnc(NCCN5CCNCC5)c4c3-c3ccccc3)ccc21 | 97 | 3080 | 42 |  | 
15 | CN(C)CCOc1ccc(-c2oc3ncnc(NCCN4CCNCC4)c3c2-c2ccccc2)cc1 | 148 | 360 | 14 | 468 | 
16 | c1ccc(CCNc2ncnc3oc(-c4ccc(OCCN5CCCC5)cc4)c(-c4ccccc4)c23)cc1 | 1 | 1670 | 5 | 5720 | 
17 | COc1cc(-c2oc3ncnc(NCCN4CCNCC4)c3c2-c2ccccc2)ccc1OCCN1CCCCC1 | 586 | 3220 | 22 | 2630 | 
18 | O=C(c1ccc(-c2oc3ncnc(NCCN4CCNCC4)c3c2-c2ccccc2)cc1)N1CCCCC1 | 85 | 121 | 22 |  | 
19 | COc1cc(-c2oc3ncnc(NC[C@@H]4CCCO4)c3c2-c2ccccc2)ccc1OCCN1CCCCC1 | 38 | 825 | 8 | 193 | 
